From patent US20070142345A1, “Steroids for cancer treatment” (priority 2004, published 2007) come the findings set out here.

One assay deals with T1, hER-α (Homo sapiens, UniProt P03372).
T1 construct: purchased MDS PharmaServices (contract assay); host or cells: insect Sf cells
T1 sequence (P03372 1-595): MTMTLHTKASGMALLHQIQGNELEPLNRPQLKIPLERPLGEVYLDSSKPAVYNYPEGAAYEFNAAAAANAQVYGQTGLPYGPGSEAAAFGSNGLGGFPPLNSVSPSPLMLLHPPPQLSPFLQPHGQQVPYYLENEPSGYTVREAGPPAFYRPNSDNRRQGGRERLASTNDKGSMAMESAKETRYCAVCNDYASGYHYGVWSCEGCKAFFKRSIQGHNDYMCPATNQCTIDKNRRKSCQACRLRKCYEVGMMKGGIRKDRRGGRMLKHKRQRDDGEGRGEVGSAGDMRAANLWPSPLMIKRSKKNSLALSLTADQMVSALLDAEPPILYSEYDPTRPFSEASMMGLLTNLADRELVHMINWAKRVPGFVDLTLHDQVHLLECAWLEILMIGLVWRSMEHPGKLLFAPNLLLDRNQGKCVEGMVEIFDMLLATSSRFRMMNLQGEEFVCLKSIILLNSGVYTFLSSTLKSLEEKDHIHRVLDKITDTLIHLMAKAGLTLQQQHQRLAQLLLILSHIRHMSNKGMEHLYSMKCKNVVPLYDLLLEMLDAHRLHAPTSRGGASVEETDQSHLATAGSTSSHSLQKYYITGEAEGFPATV
Put plainly: In vitro binding affinity to the estrogen receptor-α, displacement assay with 0.5 nM 3H-estradiol. Particulars: hER-α recombinant, insect Sf cells, 0.5 nM 3H-estradiol radioligand, tested 0.03-10.0 nM; for IC50: read-out: ERα-aff IC50; for Ki: read-out: ERα-aff Ki. As to the method: In Vitro Binding Affinty to the Estrogen Receptor-α (MDS PharmaServices)
Binding affinity was determined in a displacement assay using hER-α (recombinant, insect Sf cells) with 0.5 nM ^3H-estradiol as radioligand. The compounds were tested in concentrations from 0.03-10.0 nM. Results are given as IC50 and Ki.

In assay [1] the test system is ICR derived immature female mice. Put plainly: In vivo estrogenic agonism, uterine wet weight. Particulars: 10 mg/kg s.c., three consecutive days, uterus wet weight 24 h after final dose. As to the method:
In Vivo Estrogenic Agonism (MDS PharmaServices)
Compounds were administered s.c. (10 mg/kg) for three consecutive days to a group of 5 ICR derived immature female mice weighing approx. 13 g. The animals were sacrificed 24 h after the final dose and wet weight of the uterus was measured. A 50% or greater increase in the uterine weight relative to the vehicle control group indicates possible estrogen agonist activity.

Assay [2] has the same test system. The assay can be described thus: In vivo estrogenic antagonism, estradiol-benzoate challenge, uterine wet weight. More on the design: unit: %. Particulars: 10 mg/kg s.c., three consecutive days, estradiol-benzoate 3 μg/kg s.c. challenge, uterus wet weight 24 h after final dose. How it is done: In Vivo Estrogenic Antagonism (MDS PharmaServices)
Compounds were administered s.c. (10 mg/kg) for three consecutive days to a group of 5 ICR derived immature female mice weighing approx. 13 g and challenged with estradiol-benzoate (3 μg/kg s.c.) immediately after each daily dosing. The animals were sacrificed 24 h after the final dose and wet weight of the uterus was measured. A 50% or greater reduction in the estradiol-induced increase in uterine weight indicates possible estrogen antagonist activity.

With `C=C1[C@H](O)C[C@H]2[C@@H]3[C@H](CCCCCCCCCCC(=O)N(C)CCCC)Cc4cc(O)ccc4[C@H]3CC[C@]12C` [Ex 1, 11-(3,16α-Dihydroxy-17-methylene-estra-1,3,5(10)-triene-7α-yl)-undecanoic acid n-butyl-methyl-amide], on hER-α, the IC50 (in general, the concentration that inhibits the measured activity by half) was 3.5 nM and the inhibition constant Ki – broadly, a measure of affinity in units of concentration, obtained from inhibition or displacement – came out at 1 nM. The “In vivo agonism (increase in uterine weight relative to vehicle control)” value in assay [1] was 1%. For the same molecule, in assay [2], the “in vivo antagonism (reduction in the estradiol-induced increase in uterine weight)” value is on record as 61.

Consider `CCCCN(C)C(=O)CCCCCCCCCC[C@@H]1Cc2cc(O)ccc2C2CC[C@@]3(C)C(C[C@@H](O)C34CC4)C21` (stereo partly drawn) [Ex 4, 11-(17-(1,2-Ethylene)-3,16α-dihydroxy-estra-1,3,5(10)-triene-7α-yl)-undecanoic acid n-butyl-methyl-amide], for which, on hER-α, the IC50 was found to be 2.48 nM and the inhibition constant Ki was 0.71 nM. In addition, the “In vivo agonism (increase in uterine weight relative to vehicle control)” value in assay [1] came out at 4%. The “in vivo antagonism (reduction in the estradiol-induced increase in uterine weight)” value in assay [2] amounted to 58.

In the case of `C=C1[C@H](O)CC2C3C(CC[C@]12C)c1ccc(O)cc1C[C@H]3CCCCCCCCC[S+]([O-])CCCC(F)(F)C(F)(F)F` (some centres unmarked) [Ex 5], on hER-α, the IC50 was found to be 1.19 nM and the Ki was determined as 0.34 nM. For the same molecule, in assay [1], the “In vivo agonism (increase in uterine weight relative to vehicle control)” value is 8%. For the same molecule, the “in vivo antagonism (reduction in the estradiol-induced increase in uterine weight)” value in assay [2] is on record as 55.

Turning to `CO[C@H]1c2cc(O)ccc2C2CC[C@@]3(C)C(C[C@@H](O)C34CC4)C2[C@@H]1CCCCCCCCC[S+]([O-])CCCC(F)(F)C(F)(F)F` (some centres unmarked) [Ex 8], on hER-α, the IC50 turned out to be 10.2 nM and the Ki amounted to 2.91 nM.

Take `C[C@]12CCC3c4ccc(O)cc4C(=O)[C@@H](CCCCCCCCC[S+]([O-])CCCC(F)(F)C(F)(F)F)C3C1C[C@@H](O)C21CC1` (stereo partly drawn) [Ex 10, 17-(1,2-Ethylene)-3,16α-dihydroxy-6-keto-7α-[9-[(4,4,5,5,5-pentafluoro-n-pentyl)sulfinyl]nonyl]-estra-1,3,5(10)-triene]: at hER-α, the IC50 stood at 4.75 nM and the Ki was 1.36 nM.

For the molecule `C[C@]12CCC3c4ccc(O)cc4[C@@H](O)[C@@H](CCCCCCCCC[S+]([O-])CCCC(F)(F)C(F)(F)F)C3C1C[C@@H](O)C21CC1` (stereo partly drawn) [Ex 12, 17-(1,2-Ethylene)-3,6α,16α-trihydroxy-7α-[9-[(4,4,5,5,5-pentafluoro-n-pentyl)sulfinyl]nonyl]-1,3,5(10)-triene], at hER-α, the concentration for half-maximal inhibition (IC50) worked out at 1.59 nM and the Ki turned out to be 0.45 nM.

With `CO[C@@H]1c2cc(O)ccc2C2CC[C@@]3(C)C(C[C@@H](O)C34CC4)C2[C@@H]1CCCCCCCCC[S+]([O-])CCCC(F)(F)C(F)(F)F` (stereo partly drawn) [Ex 14, 17-(1,2-Ethylene)-3,16α-dihydroxy-6α-methoxy-7α-[9-[(4,4,5,5,5-pentafluoro-n-pentyl)sulfinyl]nonyl]-estra-1,3,5(10)-triene], on hER-α, the half-inhibitory concentration (IC50) is > 10 nM and the inhibition constant Ki was > 10 nM.

On to `C[C@]12CCC3c4ccc(O)cc4[C@H](F)[C@@H](CCCCCCCCC[S+]([O-])CCCC(F)(F)C(F)(F)F)C3C1C[C@@H](O)C21CC1` (stereo partly drawn) [Ex 16, 17-(1,2-Ethylene)-6β-fluoro-3,16α-dihydroxy-7α-[9-[(4,4,5,5,5-pentafluoro-n-pentyl)sulfinyl]nonyl]-estra-1,3,5(10)-triene], for which, on hER-α, the concentration for half-maximal inhibition (IC50) is 1.04 nM and the inhibition constant Ki amounted to 0.3 nM.

Take `C[C@]12CCC3c4ccc(O)cc4C[C@@H](CCCCCCCCC[S+]([O-])CCCC(F)(F)C(F)(F)F)C3C1C[C@@H](O)C21CC1` (stereo partly drawn) [Ex 18, 17-(1,2-Ethylene)-3,16α-dihydroxy-7α-[9-[(4,4,5,5,5-pentafluoro-n-pentyl)sulfinyl]nonyl]-estra-1,3,5(10)-triene]: at hER-α, the IC50 came to 0.92 nM and the inhibition constant (Ki) stood at 0.26 nM.

`CCCCN(C)C(=O)CCCCCCCCCC[C@@H]1Cc2cc(O)ccc2[C@H]2CC[C@]3(C)[C@@H](O)CC[C@H]3[C@H]12` [ICI 164, 384, 11-(3,17β-Dihydroxy-estra-1,3,5(10)-triene-7α-yl)-undecanoic acid n-butyl-methyl-amide, reference compound]: the “in vivo antagonism (reduction in the estradiol-induced increase in uterine weight)” value in assay [2] is 66.

For `CC12CCC3c4ccc(O)cc4CC(CCCCCCCCC[S+]([O-])CCCC(F)(F)C(F)(F)F)C3C1CCC2O` (centres unmarked) [ICI 182, 780, reference compound], in assay [2], the “in vivo antagonism (reduction in the estradiol-induced increase in uterine weight)” value amounted to 66.
